# Measurements: patent publication US20180312886A1, “MICROBIAL PRODUCTION OF CHEMICAL PRODUCTS AND RELATED COMPOSITIONS, METHODS AND SYSTEMS” (CARGILL INCORPORATED, priority 2014, published 2018)
# Experiments:
# [1] = tested on: fatty acid synthase system; assay type: cell-based, E. coli
# [2] = molecular target: KASI ketoacyl-ACP synthase (e.g., fabB in E. coli) (Escherichia coli, UniProt P0A953); conditions: KX3_0001, fed-batch medium, 24 h
# Chain of KASI ketoacyl-ACP synthase (e.g., fabB in E. coli) (P0A953 whole entry): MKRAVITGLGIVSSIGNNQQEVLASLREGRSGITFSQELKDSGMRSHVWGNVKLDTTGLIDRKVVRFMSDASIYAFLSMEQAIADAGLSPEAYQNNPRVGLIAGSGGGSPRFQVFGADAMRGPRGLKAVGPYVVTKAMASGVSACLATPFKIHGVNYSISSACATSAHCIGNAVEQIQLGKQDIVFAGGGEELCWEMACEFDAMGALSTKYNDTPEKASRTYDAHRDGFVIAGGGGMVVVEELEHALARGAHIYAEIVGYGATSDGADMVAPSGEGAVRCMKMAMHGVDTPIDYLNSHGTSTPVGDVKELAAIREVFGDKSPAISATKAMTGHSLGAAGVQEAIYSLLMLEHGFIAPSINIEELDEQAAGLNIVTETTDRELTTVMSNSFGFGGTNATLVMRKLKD
# Protocol: Cultures were started from freezer stocks by standard practice (Sambrook and Russell, 2001) into 50 mL of LB media plus 100 μg/mL ampicillin and grown to stationary phase overnight at 37° C. with rotation at 225 rpm. Five ml of this culture were transferred to 100 ml of fed-batch or AM2 media plus 40 g/L glucose, 100 kg/ml ampicillin, 1 mM IPTG in triplicate 250-ml baffled flasks, and incubated at 37° C., 225 rpm. […] Dry cell weight (DCW) is calculated as 0.33 times the measured OD600 value, based on baseline DCW to OD600 determinations. All data are the average of triplicate cultures.
smiles,measurement,setting,value
C/C=C/C/C=C/CCC(=O)[C@H]1O[C@H]1C(N)=O [cerulenin],increase in specific productivity relative to the results without cerulenin,"[1]; BX3_0206, SM3 medium, 24 hours",approximately 40 fold
same,3HP,"[1]; strain BX3_0194, SM3 medium, cerulenin, 4 hr",0.003 gIL
same,increase in specific productivity relative to the results without cerulenin,[2],31 fold
